Results published in PMC6213599 (Marine Drugs, 2018).
Converted amounts (≈) assume the structure as drawn. Like-named read-outs stand apart in the source and are kept apart here. Non-standard residues stand in square brackets, D forms with d. Residues, ends and D or L forms follow the SMILES beside them. Hyp = O=C(O)[C@@H]1C[C@@H](O)CN1

What was measured:
NA [1] = details: cited from earlier work
From the text: (§1) To determine the mode of action of the NA-inhibitory peptide, a Lineweaver–Burk kinetic model was used to explore the relationship between the reaction rate and the substrate concentration.

[2] = test system: influenza virus A/Puerto Rico/8/1934 (H1N1) in MDCK cells
[3] = biological target: T1, Influenza virus H1N1 neuraminidase (NA) (Influenza A virus, UniProt P03468); assay type: biochemical; details: relative to hydrolysates (<5000 Da), from the IC50 values
[4] = biological target: T1, Influenza virus H1N1 neuraminidase (NA); experiment: NA inhibition mode, Lineweaver–Burk kinetics; assay type: biochemical; details: Lineweaver–Burk plot
Protocol: The mode of NA inhibition was determined according to the previous method with slight modifications. Various concentrations of MUNANA (1.25, 2.5, 5, 10 and 20 μM) were incubated with NA in the absence or presence (0–2.5 mg/mL) of the peptide P at 37 °C. The inhibition kinetics of NA in the presence of peptide P was determined based on the Lineweaver–Burk plot. The inhibitor constant Ki was calculated by plotting 1/Vmax versus the concentrations of peptide P.

MDCK cells = experiment: Cytotoxicity test by MTT assay; assay type: cell-based, canine; details: 48 h
Protocol: The MTT assay was used to determine the effect of the peptide on the viability of MDCK cells. The 96-well plates were used to culture the MDCK cells. After adding 10 μL of PBS containing MTT (0.5 mg/mL) into each well, the solution was incubated at 37 °C for 4 h. After removing the supernatant, 200 μL of DMSO was added into each well. The optical density (OD) for each well was determined at 570 nm. The IC50 was calculated as the concentration of the sample at which the number of viable cells was decreased to 50% of that in the cell control.

[5] = test system: influenza virus H1N1 (HA titer, chicken red blood cells); set-up: species or system influenza A H1N1 virus
[6] = test system: pepsin, chymotrypsin, trypsin; experiment: Simulated in vitro gastrointestinal digestion, NA inhibition read-out; assay type: in vitro ADME; details: 10 mg/mL, pepsin pH 2.0, 37 °C, 2 h, then chymotrypsin pH 7.5, 37 °C, 1 h, three replicates
Protocol: Simulated digestion assay was performed according to the previous method with slight modifications. The NA-inhibitory peptide was dissolved in deionized water to prepare 10 mg/mL solution. The pH was adjusted to 2.0 with 1 mol/L HCl and then pepsin (2.86% of the substrate, dry basis) was added. Digestion was performed at 37 °C for 2 h, followed by boiling for 10 min to stop the enzyme activation. Subsequently, the pH was adjusted to 7.5 with 0.2 mol/L NaOH. After adding chymotrypsin (4.00% of substrate, dry basis), the reaction was carried out at 37 °C for 1 h. The sample was submerged in a 95 °C water bath for 10 min to terminate the enzymatic digestion and cooled on ice to room temperature. Then, trypsin (4.00% of substrate, dry basis) was added, and the above steps were repeated. Afterwards, the digested mixtures were centrifuged at 10,000× g for 10 min to obtain the digestive juices. The NA inhibition assay in digestive juices was detected as described above.

[7] = test system: influenza virus A/Puerto Rico/8/1934 (H1N1) in MDCK cells; remark: listed apart in the source
NA [8] = details: no reference given; cited from earlier work
From the text: as §1

ACE = details: cited from earlier work
[9] = influenza virus A/Puerto Rico/8/1934 in MDCK cells, 1 h, 250 μg/mL

T1 sequence (P03468 whole entry, looked up): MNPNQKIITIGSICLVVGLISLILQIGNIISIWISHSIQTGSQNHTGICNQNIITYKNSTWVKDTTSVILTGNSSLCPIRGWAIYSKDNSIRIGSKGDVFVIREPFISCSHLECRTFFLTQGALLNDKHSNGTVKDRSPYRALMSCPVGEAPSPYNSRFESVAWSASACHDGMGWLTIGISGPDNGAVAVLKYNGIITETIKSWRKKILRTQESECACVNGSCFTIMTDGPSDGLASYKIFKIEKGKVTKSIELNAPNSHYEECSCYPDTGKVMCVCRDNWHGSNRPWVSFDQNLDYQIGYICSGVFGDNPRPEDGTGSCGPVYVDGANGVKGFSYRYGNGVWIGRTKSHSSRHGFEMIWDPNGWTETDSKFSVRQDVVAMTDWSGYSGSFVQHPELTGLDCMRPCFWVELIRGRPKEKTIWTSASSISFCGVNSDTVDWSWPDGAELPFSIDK

## 2-hydroxy-3-methyl-3-butenyl alkyl [HMB]
NA [1]
  Mode of NA inhibition: non-competitive
NA [1]; read-out: IC50 for NA
  IC50: 12.3 µM
NA [1]; read-out: Ki for NA
  Ki: 14 ± 1.5 µM

## NC(=O)c1ncn([C@@H]2O[C@H](CO)[C@@H](O)[C@H]2O)n1 [ribavirin, Ribavirin, reference compound]
[2]; positive control in the time-of-addition experiment
  Inhibition ratio, positive control: 75%

## CC(C)C[C@H](NC(=O)CNC(=O)[C@H](CCC(N)=O)NC(=O)[C@@H]1CCCN1C(=O)CNC(=O)[C@@H]1C[C@@H](O)CN1C(=O)[C@@H](NC(=O)CNC(=O)[C@@H]1C[C@@H](O)CN1C(=O)[C@@H]1CCCN1C(=O)CNC(=O)[C@H](C)NC(=O)[C@@H](NC(=O)CNC(=O)[C@H](C)NC(=O)[C@H](CCC(=O)O)NC(=O)CNC(=O)[C@H](CO)NC(=O)[C@@H]1CCCN1C(=O)CNC(=O)[C@H](CCCCN)NC(=O)[C@H](CCC(=O)O)NC(=O)CNC(=O)[C@@H]1C[C@@H](O)CN1)[C@@H](C)O)[C@@H](C)O)C(=O)O [peptide P] (H-[Hyp]GEKGPSGEAGTAGP[Hyp]GT[Hyp]GPQGL-OH; N-terminus and C-terminus assumed)
[3]
  Purification Fold: 7.19
[4]
  Mode of NA inhibition: competitive
MDCK cells; concentration of 250 μg/mL or less (p > 0.05)
  Cytotoxicity in MDCK cells: no significant cytotoxicity
MDCK cells; concentrations over 250 μg/mL (p < 0.05)
  Viability of MDCK cells: significantly reduced the viability
[5]
  HA titer of the virus: significantly reduce the virus titer
[6]
  NA-inhibitory activity after simulated in vitro gastrointestinal digestion: significantly decreased
[6]; listed as NA-inhibitory peptide
  NA-inhibitory activity after simulated in vitro gastrointestinal digestion: almost inactivated
[7]
  Effect on cytopathic effect (CPE): significantly reduced the cytopathic effect
[7]; influenza virus A/Puerto Rico/8/1934 in MDCK cells, 48 h
  EC50 against H1N1: 471 ± 12 µg/mL (≈ 218 µM)
[7]; influenza virus A/Puerto Rico/8/1934 in MDCK cells, 48 h, 250 μg/mL
  Inhibition of H1N1: 42%
[2]
  Inhibition rate, added after the infection (after-adsorption): approximately 31.5%
[2]; [9]
  Inhibition ratio, during viral adsorption: 58%
  Inhibition ratio, pretreatment (added before viral adsorption): 73%

## CCOC(=O)C1=C[C@@H](OC(CC)CC)[C@H](NC(C)=O)[C@@H](N)C1 [oseltamivir]
NA [8]
  Mode of NA inhibition: competitive

## Trp-Leu
ACE
  ACE inhibitory activity after simulated digestion: completely preserved
